The results in this text go back to patent publication US9066959B2, “Ficus extracts having angiogenesis inhibiting activity and methods of isolating and using the same” (BOARD OF SUPERVISORS OF LOUISIANA STATE UNIVERSITY AND …, priority 2008, dated 2015).

The subject of assay [1] is fragments from a neuroendocrine lymph node metastasis. The experiment in a line: tumor fragment fibrin clot angiogenesis assay, neuroendocrine lymph node metastasis. The settings on record: 1 mM, day 14, control compound. The assay is classed as cell-based, human. The protocol:
(§1) Fibrin clots were prepared in 96-well plates (Corning Inc., Corning, N.Y.). Each well was preloaded with a human thrombin solution (0.05 IU/mL; in 2.0 μL/well), (Sigma Chemical Company, St Louis, Mo.). A pre-coagulation solution was prepared by dissolving fibrinogen (0.3%; Sigma) and ∈-aminocaproic acid (0.5%; Sigma) in serum-free growth medium consisting of medium 199 (Mediatech, Herndon Va.) supplemented with an antibiotic-antifungal solution (Gibco/Invitrogen, Grand Island, N.Y.; 100 Units/mL of sodium penicillin G, 100 μg/mL of streptomycin sulfate, and 25 μg of amphotericin B) and buffered to a pH of 7.6. Tumor specimens were placed in chilled serum-containing growth media (medium 199 with 20% fetal bovine serum [FBS], Gibco/Invitrogen) and kept under refrigeration until they were processed. The specimens were processed within 24 hours of surgical harvesting. Minced tumor fragments approximately 2 mm in diameter and 1 mm thick were prepared and rapidly embedded within the fibrin clots. Each tumor fragment was placed in the center of a thrombin-treated well. […] Percent initiation (% I) is a ratio calculated from the number of wells that developed an angiogenic response divided by the total number of wells prepared (×100). […] On day 14, fragments were examined microscopically and scored for an angiogenic response (angiogenic index=0-16). […]

The next assay concerns fragments from a sarcoma. Nature of the assay: tumor fragment fibrin clot angiogenesis assay, sarcoma. In kind it is cell-based, human. As to conditions: 1 mM, day 14, control compound. As to the method: as §1

For the molecule `O=C(O)c1cc(O)c(O)c(O)c1` [Gallic Acid], the “angiogenic response (angiogenic index 0-16)” value (in assay [1]; with fragments from a sarcoma) was “total inhibition” in each case.
